From patent publication US8492442B2, “Medicinal composition, food or drink having effect of enhancing parasympathetic nervous activity” (Suntory Holdings Limited, priority 2007, dated 2013)
“Also recorded” adds a separate entry of the source.

Legend:
[1] = test system: methicillin-resistant Staphylococcus aureus; conditions: phenyl lactic acid produced by use of a lactic acid bacterium; cited from earlier work
Aspergillus niger = conditions: etc.; cited from earlier work
[2] = test system: pathogenic Escherichia coli O-157; conditions: phenyl lactic acid produced by use of a lactic acid bacterium; cited from earlier work
[3] = test system: kidney sympathetic nervous activity; experiment: Rat kidney sympathetic nervous activity after transduodenal administration (electrical discharge recording); assay type: in vivo; conditions: male Wister rats, urethane-anesthesia
Description: In these experiments, use was made of male Wister rats weighing about 300 to 350 g which had been preliminarily fed in a thermostatic chamber (24° C.) with a light-dark cycle of 12-hour intervals (under illumination from 8:00 to 20:00) for 1 week or longer. A single rat was employed for each nervous experiment. The animals were fed with a feed (MF: Oriental Yeast) and water ad libitum. The autonomic nervous activity were examined by fasting the rats for 5 hours on the day of the experiment and then subjecting to an abdominal surgery under urethane-anesthesia (1 g/kg, i.p.). Then, the effects of the transduodenal administration of L-phenyl lactic acid and D-phenyl lactic acid (10 μg or 100 μg) on the kidney sympathetic nervous activity were measured in accordance with the method reported by T. Yamano et al., Neurosci. Lett. 313:78-82 (2001), A. Niijima et al., Autonom. Neurosci.: Basic & Clinical 97:99-102 (2002) and M. Tanida et al., Am. J. Physiol: Regulatory, Integrative and Comparative Physiology 288:R447-R455 (2005). Namely, the sympathetic nerve projecting toward the kidney was cut before the organ and the central side was placed on a silver electrode. Thus, a change in the electrical activity was monitored. To prevent dryness, the electrode had been preliminarily dipped in a mixture of liquid paraffin and petroleum jelly for a sufficient period of time. From the initiation of the surgery to the completion of the measurement, a tube was inserted into the respiratory tract for the management of the airway. The body temperature (rat rectal temperature) was maintained at 35±0.5° C. with the use of a heater. The transduodenal administration was conducted by dissolving L-phenyl lactic acid or D-phenyl lactic acid in physiological saline to give a concentration of 10 μg/2 ml or 100 μg/2 ml, and administering 2 ml/animal of each solution at a rate of 1 ml/min through a polyethylene tube inserted into the duodenum. Electrical nervous activity thus obtained were amplified with a condenser type differential amplifier, monitored with an oscilloscope and recorded on a magnetic tape. To separate the raw data from the background noise, all of the nervous activities were converted into standard pulses by use of a slicer and a window discriminator before analyzing. Discharge frequencies were indicated on a pen recorder by using a rate meter at a reset time of 5 seconds. The data was analyzed based on the average discharge frequency per 5 seconds (pulse/5 sec) and expressed in percentage by referring the level before the administration as to 100%. A group with the administration of physiological saline was employed as a control.

[4] = test system: stomach vagal (parasympathetic) nervous activity; experiment: Rat stomach vagal (parasympathetic) nervous activity after transduodenal administration; assay type: in vivo; conditions: 100 μg, FIG. 5
blood pressure = experiment: Rat blood pressure after transduodenal administration (femoral artery cannula, transducer); assay type: in vivo; conditions: 100 μg, FIG. 4

SMILES | antibacterial effect [1] | antifungal activity (Aspergillus niger) | antibacterial effect [2] | effect on kidney sympathetic nervous activity ([3]; 10 μg/animal, FIG. 2) | effect on kidney sympathetic nervous activity ([3]; 100 μg/animal, FIG. 3) | effect on rat stomach vagal (parasympathetic) nervous activity [4] | effect on rat blood pressure (blood pressure)
O=C(O)C(O)Cc1ccccc1 (stereo not shown) [phenyl lactic acid, 2-hydroxy-3-phenyl propionic acid] | antibacterial effect | antifungal activity | antibacterial effect | – | – | – | –
O=C(O)[C@@H](O)Cc1ccccc1 [L-phenyl lactic acid, L-β-3-phenyl lactic acid] | – | – | – | little effect | reduced; also recorded: higher reducing effect | enhancement | hypotensive effects
O=C(O)[C@H](O)Cc1ccccc1 [D-phenyl lactic acid, D-β-3-phenyl lactic acid] | – | – | – | enhanced | reduced | – | hypotensive effects
